Source: US20240132463A1, “SUBSTITUTED N-(2-(2,6-DIOXOPIPERIDIN-3-YL)-1,3-DIOXOISOINDOLIN-5-YL)ARYLSULFONAMIDE ANALOGS AS MODULATORS OF CEREBLON PROTEIN” (ST. JUDE CHILDREN'S RESEARCH HOSPITAL, INC., priority 2020, published 2024)
pIC50: −log10 of the molar value. Like-named read-outs stand apart in the source and are kept apart here.

Legend:
[1] = system: human cancer cell lines; assay: Cell proliferation in human cancer cell lines; format: cell-based; conditions: data not shown
[2] = system: cells; conditions: Ref. 13; cited from earlier work
[3] = molecular target: GSPT1 HiBiT tag protein (Homo sapiens (Human), UniProt P15170+Q96SW2); assay: hGSPT1 HiBiT assay; format: cell-based; conditions: read-out: GSPT1 HiBit EC50; HEK293 hGSPT1 HiBiT cells, 4 hrs incubation
Chain of GSPT1 HiBiT tag protein (P15170 whole entry): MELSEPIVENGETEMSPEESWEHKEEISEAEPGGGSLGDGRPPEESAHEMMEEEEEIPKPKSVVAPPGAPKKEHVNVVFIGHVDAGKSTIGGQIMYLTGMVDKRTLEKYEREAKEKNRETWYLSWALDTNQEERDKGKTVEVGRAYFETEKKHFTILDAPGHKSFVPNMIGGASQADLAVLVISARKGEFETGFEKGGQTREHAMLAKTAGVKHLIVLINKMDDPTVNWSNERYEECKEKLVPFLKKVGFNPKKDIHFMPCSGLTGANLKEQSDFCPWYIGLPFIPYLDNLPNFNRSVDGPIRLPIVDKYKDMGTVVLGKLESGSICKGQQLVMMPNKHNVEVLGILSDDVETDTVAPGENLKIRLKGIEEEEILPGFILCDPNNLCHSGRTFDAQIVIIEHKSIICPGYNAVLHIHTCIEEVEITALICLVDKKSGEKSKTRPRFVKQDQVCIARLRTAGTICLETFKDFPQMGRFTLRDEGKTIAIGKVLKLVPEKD
Chain of GSPT1 HiBiT tag protein (Q96SW2 whole entry): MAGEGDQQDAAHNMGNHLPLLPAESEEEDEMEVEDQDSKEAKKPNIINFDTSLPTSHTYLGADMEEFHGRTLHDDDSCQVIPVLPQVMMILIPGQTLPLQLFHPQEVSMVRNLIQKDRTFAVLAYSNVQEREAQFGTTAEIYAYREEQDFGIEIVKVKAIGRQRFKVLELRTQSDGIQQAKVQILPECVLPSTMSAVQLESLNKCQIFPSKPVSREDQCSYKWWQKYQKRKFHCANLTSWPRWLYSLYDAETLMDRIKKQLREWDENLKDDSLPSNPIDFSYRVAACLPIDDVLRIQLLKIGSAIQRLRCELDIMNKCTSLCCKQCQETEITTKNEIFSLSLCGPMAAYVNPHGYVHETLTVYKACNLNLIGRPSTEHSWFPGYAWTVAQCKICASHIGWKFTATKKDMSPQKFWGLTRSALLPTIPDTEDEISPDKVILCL
Chain of GSPT1 HiBiT tag protein (Q16531 whole entry partner): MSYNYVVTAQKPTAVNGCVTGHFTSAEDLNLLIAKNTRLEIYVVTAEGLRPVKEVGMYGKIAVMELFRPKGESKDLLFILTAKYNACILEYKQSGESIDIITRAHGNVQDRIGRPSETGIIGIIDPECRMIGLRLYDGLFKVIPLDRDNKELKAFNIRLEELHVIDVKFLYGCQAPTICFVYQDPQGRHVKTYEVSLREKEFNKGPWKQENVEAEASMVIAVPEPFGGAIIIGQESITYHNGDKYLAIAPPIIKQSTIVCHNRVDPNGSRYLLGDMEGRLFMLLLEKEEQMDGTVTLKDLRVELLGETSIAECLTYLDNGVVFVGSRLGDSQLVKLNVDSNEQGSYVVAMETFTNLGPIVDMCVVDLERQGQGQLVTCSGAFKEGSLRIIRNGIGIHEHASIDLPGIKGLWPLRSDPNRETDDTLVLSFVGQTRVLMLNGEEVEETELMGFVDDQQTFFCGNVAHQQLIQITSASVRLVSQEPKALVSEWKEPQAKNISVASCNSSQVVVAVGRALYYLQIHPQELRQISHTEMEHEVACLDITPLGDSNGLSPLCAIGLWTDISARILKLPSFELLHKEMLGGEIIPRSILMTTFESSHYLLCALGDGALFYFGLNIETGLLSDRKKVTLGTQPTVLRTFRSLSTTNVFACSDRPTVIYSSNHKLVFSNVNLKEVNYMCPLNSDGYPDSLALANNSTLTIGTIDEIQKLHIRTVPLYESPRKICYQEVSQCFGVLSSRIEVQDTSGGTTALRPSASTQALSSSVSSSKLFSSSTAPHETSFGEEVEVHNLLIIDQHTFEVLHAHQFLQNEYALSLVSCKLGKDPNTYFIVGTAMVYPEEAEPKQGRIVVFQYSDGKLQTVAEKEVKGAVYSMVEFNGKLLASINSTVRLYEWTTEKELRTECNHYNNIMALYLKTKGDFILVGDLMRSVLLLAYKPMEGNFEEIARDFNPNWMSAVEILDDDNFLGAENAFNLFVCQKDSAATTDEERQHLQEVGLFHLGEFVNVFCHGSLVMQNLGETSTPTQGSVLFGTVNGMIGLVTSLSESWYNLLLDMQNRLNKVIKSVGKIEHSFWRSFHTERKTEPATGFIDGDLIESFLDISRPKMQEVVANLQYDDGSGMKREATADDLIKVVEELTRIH
Method: hGSPT1 HiBiT cell line. HEK293_hGSPT1_HiBiT tagged cells were generated using CRISPR-Cas12a technology. Briefly, ˜400,000 HEK293 cells were transiently co-transfecting with precomplexed ribonuclear proteins (RNPs) consisting of […] of crRNA (IDT), 62 pmol of Cas12a protein (IDT), 3 ug of ssODN donor (IDT; AltR™ modifications), 78 pmol of electroporation enhancer (IDT), and 200 ng of pMaxGFP (Lonza). The transfection was performed via nucleofection (Lonza, 4D-Nucleofector™ X-unit) using solution P3 and program CM-130 in a small (20 ul) cuvette according to the manufacturer's recommended protocol. Five days post-nucleofection, cells were single cell sorted for GFP+(transfected) cells by FACs in 96-well plates and clonally selected. Clones were screened and verified for the desired modification via targeted deep sequencing using gene specific primers with partial Illumina adapter overhangs as previously described.^58 In brief, clonal cell pellets were harvested, lysed and used to generate gene specific amplicons with partial Illumina adapters in PCR #1. Amplicons were indexed in PCR #2 and pooled with other targeted amplicons for other loci to create sequence diversity. Additionally, 10% PhiX Sequencing Control V3 (Illumina) was added to the pooled amplicon library prior to running the sample on an Miseq Sequencer System (Illumina) to generate paired 2×250 bp reads. […] Editing construct sequences and screening primers are listed below in Table 4.
hGSPT1 HiBiT assay. […] After 4 hrs incubation, the level of GSPT1 HiBiT tag protein was evaluated using Nano-Glo® HiBiT Lytic Detection System (Promega) according to the manufacturer's instruction.

[4] = Aqueous solubility assay; format: physicochemical; conditions: aqueous solubility at pH = 7.4, triplicate
Method: Solubility assays were carried out on a Biomek FX lab automation workstation (Beckman Coulter, Inc., Fullerton, CA) using μSOL Evolution software (pION Inc., Woburn, MA). 10 μL of 10 mM compound stock (in DMSO) was added to 190 μL 1-propanol to make a reference stock plate. 5 μL from this reference stock plate were mixed with 70 μL 1-propanol and 75 μL citrate phosphate-buffered saline (PBS;isotonic) to make the reference plate, and the UV spectrum (250-500 nm) of the reference plate was read. 6 μL of 10 mM test compound stock was added to 594 μL buffer in a 96-well storage plate and mixed. The storage plate was sealed and incubated at RT for 18 h. The suspension was then filtered through a 96-well filter plate (pION Inc., Woburn, MA). 75 μL of filtrate was mixed with 75 μL 1-propanol to make the sample plate, and the UV spectrum of the sample plate was read. Calculations were carried out with μSOL Evolution software based on the area under the curve (AUC) of the UV spectrum of the sample and reference plates. All compounds were tested in triplicate.

[5] = molecular target: IKZF1 (Homo sapiens (Human), UniProt Q13422+Q96SW2); assay: IKZF1 degradation by immunoblot in MV4-11 cells; format: cell-based
Method: (§1) MV4-11 cells were seeded in 6-well plates (1×10^6 cells per well). After overnight incubation, the cells were treated with indicated concentrations for specific timepoints. […] After blocking the membrane with LI-COR TBS blocking buffer and incubation in primary antibody overnight, the corresponding protein signals were detected using IRDye secondary antibodies and Odyssey Imaging System. Image Studio Lite Ver 5.2 was used for blot quantification. […] IRDye® 800CW Goat anti-Mouse IgG Secondary Antibody and IRDye® 68ORD Goat anti-Rabbit IgG Secondary Antibody were used as secondary antibodies.

[6] = molecular target: 6×His-CRBN-DDB1 protein (Homo sapiens (Human), UniProt Q96SW2); assay: CRBN fluorescence polarization assay; format: binding
Chain of 6×His-CRBN-DDB1 protein (Q96SW2 whole entry): as the sequence (Q96SW2 whole entry) above
Chain of 6×His-CRBN-DDB1 protein (Q16531 whole entry partner): as the sequence (Q16531 whole entry partner) above
Method: 6×His-CRBN-DDB1 protein (200 nM) and Cy5-O-Len probe (30 nM) were combined in 20 mM HEPES pH 7, 150 mM NaCl, 0.005% Tween-20 assay buffer. […] The plates were incubated in the dark for 1 hour at room temperature and then read on an Envision plate reader (PerkinElmer, Massachusetts, USA).

[7] = system: MV4-11 cells; assay: MV-4-11 cell viability assay; format: cell-based, human; conditions: 72 hours, Cell Titer Glo
Method: (§2) MV-4-11 cell line was purchased from the American Type Culture Collection (ATCC, Manassas, VA). The cells were cultured according to recommendations in IMDM cell culture media (ATCC). Exponentially growing MV-4-11 cells were plated at 1,000 cells per well in Corning 8804BC white 384-well assay plates and incubated overnight at 37° C. in a humidified 5% CO2 incubator. Compounds were transferred to the assay plate from a dose-response plate using a Pintool on a Biomek FXP Laboratory Automation Workstation (Beckman Coulter). Cytotoxicity was determined following 72 hours of incubation using Promega Cell Titer Glo reagent according to the manufacturer's recommendation. Luminescence was measured on an Envision plate reader (Perkin-Elmer).
(§3) Compounds were screened in human cancer cell lines and each cell line was cultured in the complete medium recommended by the vendor and seeded in Corning 8804BC white 384-well assay plates at density of 1,000, 1,000, 1,000, 1,500 and 7,500 cells per well, for MV4-11, HD-MB03, MB004, MB002 and MHH-CALL4 cells respectively. After overnight incubation at 37° C. in a humidified 5% CO2 incubator, cells were treated with compounds in dose-response format using a Pintool on a Biomek FXP Laboratory Automation Workstation (Beckman Coulter). […] After 72 h incubation, cell proliferation was assessed using Cell Titer-Glo (CTG) luminescent cell viability assay (Promega) according to the manufacturer's instruction. Luminescence signal was measured using an Envision plate reader (Perkin-Elmer).

[8] = system: MDCKII-MDR1 cells; assay: MDCKII-MDR1 permeability assay; format: in vitro ADME; conditions: permeability in MDCK-MDR1 cells
Method: High throughput […]1 permeability was performed in the Transwell® 0.4 μm polycarbonate membrane 96-well system with modified methods (Refs. 38-39). […]1 cells were maintained at 37° C. in a humidified incubator with an atmosphere of 5% CO2. The cells were cultured in 75 cm^2 flasks with Dulbecco's Modified Eagle's Medium (DMEM) containing 10% fetal bovine serum (FBS), 1% non-essential amino acids (NEAA), 100 units/ml of penicillin, and 100 μg/ml of streptomycin. The […]1 cells were seeded onto inserts at a density of 2×10^4 and 1×10^4 cells/insert separately. The medium in the wells was exchanged each other day, and the trans epithelial electrical resistance (TEER) value was measured using an epithelial volt-ohm meter (Millipore, Billerica, Massachusetts). […] For transport experiments, each cultured monolayer on the 96-well plate was washed twice with a transport buffer (HBSS/25 mM HEPES, pH 7.4). The permeability assay was initiated by the addition of each compound solution (10 μmol/L) into inserts (apical side, A) or receivers (basolateral side, B). The MDCKII-MDR1 cell monolayers were incubated for 1 hour at 37° C. Fractions were collected from receivers (if apical to basal permeability) or inserts (if basal to apical permeability), and concentrations were assessed by UPLC/MS (Waters; Milford, MA). All compounds were tested in triplicates. The A→B (or B→A) apparent permeability coefficients (Papp) of each compound were calculated using the equation, Papp=dQ/dt×1/AC0, where dQ/dt equals the flux of a drug across the monolayer, A equals the total insert well surface area, and C0 is the initial concentration of substrate in the donor compartment. The efflux ratio was determined by dividing the Papp in the B-A direction by the Papp in the A-B direction.

[9] = molecular target: GSPT1 (Homo sapiens (Human), UniProt P15170+Q96SW2); assay: GSPT1 degradation by immunoblot in MV4-11 cells; format: cell-based
Chain of GSPT1 (P15170 whole entry): as the sequence (P15170 whole entry) above
Chain of GSPT1 (Q96SW2 whole entry): as the sequence (Q96SW2 whole entry) above
Chain of GSPT1 (Q16531 whole entry partner): as the sequence (Q16531 whole entry partner) above
Method: as §1

[10] = system: MV4-11 cells; assay: Lenalidomide competition assay; format: cell-based, human; conditions: co-treatment with lenalidomide 10 μM, 72 h
Method: as §3

[11] = system: caspase 3/7; assay: Caspase 3/7 activity assay; format: cell-based, human; conditions: MV4-11 cells, Caspase-Glo, 4, 8 and 24 hours, 10 and 100 nM
[12] = system: CRBN knockout MV4-11 cells; assay: Cell viability in CRBN knockout MV4-11 cells; format: cell-based, human; conditions: CRBN knockout vs wild-type MV4-11 cells
Method: as §2
CRBN-deficient MV4:11 cells were generated using CRISPR-Cas9 technology. […] Five days post nucleofection, cells were single-cell sorted by FACs to enrich for GFP+(transfected) cells, clonally selected, and verified for the desired targeted modification via targeted deep sequencing using gene specific primers with partial Illumina adapter overhangs (hCRBN.F—5′-[sequence]-3′ (SEQID: 6) and hCRBN.R—5′-[sequence]-3′, (SEQID: 7); overhangs not shown) and analyzed using CRIS.py (Ref. 36).

Cc1ccc(NC(=O)NCc2ccc3c(c2)CN(C2CCC(=O)NC2=O)C3=O)cc1Cl (centres unmarked) [CC-885, N-(3-chloro-4-methylphenyl)-N′-[[2-(2,6-dioxo-3-piperidinyl)-2,3-dihydro-1-oxo-1H-isoindol-5-yl]methyl]-urea]
antiproliferative effects in cell lines [1]: displayed antiproliferative effects in all four cell lines

O=C1CC[C@H](N2Cc3c(OCc4ccc(CN5CCOCC5)cc4)cccc3C2=O)C(=O)N1 [CC-220, (S)-3-(4-((4-(morpholinomethyl)benzyl)oxy)-1-oxoisoindolin-2-yl)piperidine-2,6-dione]
potency in cells relative to lenalidomide [2]: 10 fold

O=C1CCC(N2C(=O)c3ccc(NS(=O)(=O)c4cccc(OC(F)(F)F)c4)cc3C2=O)C(=O)N1 (centres unmarked) [Compound 2, N-(2-(2,6-dioxopiperidin-3-yl)-1,3-dioxoisoindolin-5-yl)-3-(trifluoromethoxy)benzenesulfonamide]
DC50 [3]: > 10000 nM
Sol. [4]: 64 µM
effect on protein levels of IKZF1 by immunoblotting ([5]; MV4-11 cells (FIG. 6)): no effects
IKZF1 protein abundance ([5]; MV4-11 cells, treatment over 24 hours): dose-dependent decrease
pIC50 ([6]; CRBN FP IC50, cereblon binding, class symbols): > 6.00
pIC50 ([6]; CRBN IC50, fluorescence polarization, Cy5-O-Len probe): 7.14
pIC50 ([6]; fluorescence polarization, Cy5-O-Len probe, read-out: CRBN IC50): 7.27
MV4-11 EC50 [7]: no activity
Papp [8]: 4 ×10⁻⁶ cm/s
effect on protein levels of GSPT1 by immunoblotting ([9]; MV4-11 cells (FIG. 6)): no effects
selectivity window GSPT1 over IKZF1 (DC50) ([9]; MV4-11 cells, DC50 values at 24 hours): 30 fold

Cc1c(Cl)cccc1S(=O)(=O)Nc1ccc2c(c1)C(=O)N(C1CCC(=O)NC1=O)C2=O (centres unmarked) [Compound 5, 3-chloro-N-(2-(2,6-dioxopiperidin-3-yl)-1,3-dioxoisoindolin-5-yl)-2-methylbenzenesulfonamide]
antiproliferative effect in presence of lenalidomide [10]: abrogating the antiproliferative effects
caspase activation [11]: only observed at the 24 hour time point
Sol. [4]: 64 µM
IKZF1 degradation at 4 hours ([5]; MV4-11 cells, 4 hours, any concentration tested): did not significantly degrade IKZF1
Papp [8]: 3.6 ×10⁻⁶ cm/s
antiproliferative activity in absence of CRBN [12]: abolished
GSPT1 protein degradation ([9]; MV4-11 cells, 24 hours, at 100 nM): 90%
